“And” between values parts separate entries of the source, which are not always exact repeats. Identical values can stand only once. “Also recorded” adds a separate entry of the source. Marks after values point to notes of the source that are not given here.
What was measured:
[1] = test system: E. coli SI–N003 (bla NDM‑7 +); assay type: cell-based; details: compound at 32 μg/mL; median of three experiments
Protocol: (§1) In vitro antimicrobial susceptibility testing was performed according to established standards. […] The strains used in the study were described elsewhere.

[2] = test system: E. coli SI-G001 (bla NDM‑4 +); assay type: cell-based; details: compound at 32 μg/mL; median of three experiments
Protocol: as §1

NDM-1 [3] = target: T1, NDM-1 (Klebsiella pneumoniae, UniProt C7C422); experiment: Kinetic fluorescence-based in vitro assay with fluorocillin substrate (IC50); assay type: biochemical; details: 30 min preincubation
T1 construct: made in house; host or cells: E. coli
Protocol: (§2) IC50 values were determined in a kinetic fluorescence-based in vitro assay as described previously. All compounds were preincubated with the recombinant protein for 30 min before addition of the fluorogenic substrate fluorocillin. , The inhibitory activity was also determined (expressed as the percentage of inhibition in the presence of 50 μM compound) using a spectrophotometric assay in which the hydrolysis of imipenem (the reporter substrate) was monitored (see Section for details).
(§3) The inhibitory activity of the compounds was determined using enzyme assays with recombinant NDM-1, VIM-1, VIM-2, IMP-1, and IMP-7. These enzymes were produced in E. coli and purified as previously described. , The fluorogenic substrate fluorocillin was synthesized according to the procedure described by Rukavishnikov et al. The assays were performed in 96-well format using black polystyrene plates (Corning, Corning, NY) at room temperature, and the measurements were carried out on the Tecan spectrophotometer Infinite F200 PRO (Tecan, Männedorf, Switzerland). The protein stock solutions were diluted in assay buffer (HEPES 50 mM, pH 7.5 containing 0.01%Triton X-100, buffer HX) to reach final concentrations of VIM-1–4 nM, IMP-7–0.1 nM; NDM-1–3 nM. Subsequently, 89 μL of the protein solution was mixed with 1 μL of the inhibitor diluted in DMSO (final DMSO concentration 1% at final assay volume of 100 μL) and incubated for 30 min. […] Negative controls were measured in the absence of enzyme (89 μL of assay buffer), whereas the positive controls were measured in the presence of enzyme and in the absence of inhibitors (1 μL of DMSO). Each measurement was performed in triplicate in three independent experiments. IC50 values were calculated using data obtained from measurements with at least eight different inhibitor concentrations, applying a sigmoidal dose–response (variable slope with four parameters) equation using GraphPad Prism 5 (GraphPad Software, La Jolla, CA) software. […] All assays were performed in at least in triplicate.

NDM-1 [4] = target: T1, NDM-1; experiment: Spectrophotometric direct competition assay, imipenem hydrolysis (reporter substrate); assay type: biochemical; details: for Ki: competitive model, imipenem reporter substrate, read-out: K i NDM-1; for inhibition at 50 µM: read-out: percentage of inhibition NDM-1
Protocol: as §2, §3

VIM-2 [5] = target: T2, VIM-2 (Escherichia coli, UniProt Q5U7L7); experiment: biochemical; details: for K, VIM-2 / k –2, VIM-2: from dependence of k inact on inhibitor concentration; for Kd: time-dependent inhibitors, measured at steady state, listed in Table 2 as Ki with footnote 'Measured as K d'
T2 construct: made in house; host or cells: E. coli

[6] = test system: MBL-producing clinical isolates; experiment: Synergistic activity with imipenem on the whole panel of clinical isolates; assay type: cell-based
Protocol: (§4) In vitro antimicrobial susceptibility testing was performed according to established standards. […]. The strains used in the study were described elsewhere.

[7] = test system: S. marcescens SI-1591 (bla VIM‑2 +); experiment: microbe, parasite or virus in culture; assay type: cell-based; details: compound at 32 μg/mL; median of three experiments
Protocol: as §1

[8] = test system: A. baumannii AC-54/97 (bla IMP‑2 +); experiment: Imipenem MIC, broth microdilution, with fixed concentration of compound; assay type: cell-based; details: compound at 32 μg/mL; median of three experiments
Protocol: as §1

[9] = test system: K. pneumoniae 7023 (bla VIM‑1 +); experiment: as above; assay type: cell-based; details: for imipenem MIC, K. pneumoniae 7023 (bla VIM‑1 +): compound at 32 μg/mL, median of three experiments
Protocol: as §1

[10] = test system: K. pneumoniae VA-416/02 (bla VIM‑4 +); experiment: as above; assay type: cell-based; details: compound at 32 μg/mL; median of three experiments
Protocol: as §1

VIM-2 [11] = target: T2, VIM-2; experiment: biochemical; details: read-out: percentage of inhibition VIM-2
Protocol: as §2, §3

IMP-1 = target: T3, IMP-1 (Serratia marcescens, UniProt P52699); experiment: biochemical; details: for inhibition at 50 µM: read-out: percentage of inhibition IMP-1
T3 construct: made in house; host or cells: E. coli
Protocol: as §2, §3

[12] = test system: E. coli SI-M001 (bla NDM‑1 +); experiment: Imipenem MIC, broth microdilution, with fixed concentration of compound; assay type: cell-based; details: compound at 32 μg/mL; median of three experiments
Protocol: as §4

VIM-1 = target: T4, VIM-1 (Pseudomonas aeruginosa, UniProt A0A0F7KYQ8); experiment: Kinetic fluorescence-based in vitro assay with fluorocillin substrate (IC50); assay type: biochemical
T4 construct: made in house; host or cells: E. coli
Protocol: as §2, §3

IMP-7 = IMP-7 (Pseudomonas aeruginosa, UniProt Q93AU3); experiment: as above; assay type: biochemical; details: 30 min preincubation
Protocol: as §2, §3

[13] = test system: IMP-1 expressing P. aeruginosa (T2325); experiment: Growth inhibition assay (OD600 growth curves); assay type: cell-based
Protocol: (§5) 4 Growth inhibition assay. […] Purple = growth control; red = 6d; blue = imipenem; green = imipenem plus 6d.
(§6) A computerized incubator (Tecan Infinite M200 pro, Crailsheim, Germany) was used to obtain the growth curves over a time course. Optical density (OD600) was measured for evaluating bacterial (i.e., K. pneumoniae NDM-1, P. aeruginosa IMP-1, K. pneumoniae VIM-1) density in suspension. Prior to each experiment, bacteria were cultured to the exponential phase (OD600 = 0.6–0.8) in cation-adjusted Mueller Hinton broth (Becton Dickinson, Heidelberg, Germany). 5 μL of diluted bacterial suspension and 100 μL of cation-adjusted Mueller Hinton broth either with or without imipenem (Arcos Organics, Schwerte, Germany) and/or the MBL inhibitor 6d were added into wells of a 96-well plate to give a final bacterial inoculum of approximately 5 × 10^5 CFU/mL. The temperature was adjusted to 37 °C. A permanent shaking speed of 450 rpm was used and was only interrupted before OD600 measurement. The optical densities of samples were recorded online every 10 min for 24 h.

[14] = test system: NDM-1 expressing K. pneumoniae (T2301); experiment: Growth inhibition assay (OD600 growth curves); assay type: cell-based
Protocol: as §5, §6

[15] = test system: VIM-1 expressing K. pneumoniae (T2216); experiment: Growth inhibition assay (OD600 growth curves); assay type: cell-based
Protocol: as §5, §6

[16] = test system: K. pneumoniae T2216 (bla VIM‑1 +); experiment: Imipenem MIC, broth microdilution, with fixed concentration of compound; assay type: cell-based; details: compound at 128 μg/mL; median of three experiments
Protocol: as §1

[17] = test system: P. aeruginosa T2325 (bla IMP‑1 +); experiment: as above; assay type: cell-based
Protocol: as §1

[18] = target: T5, human angiotensin-converting enzyme 1 (ACE-1) (Homo sapiens, UniProt P12821); experiment: ACE Activity Assay Kit, fluorogenic substrate; assay type: biochemical; details: for inhibition at 50 µM: 50 μM inhibitor
T5 construct: purchased Sigma-Aldrich CS0002
Protocol: To assess the selectivity of the compounds, their inhibitory activity on human angiotensin-converting enzyme 1 (ACE-1) was performed using the ACE Activity Assay Kit (Sigma-Aldrich cat. No. CS0002). […] Captopril (racemic mixture, D- and L-stereoisomers) was used as control in these experiments.

[19] = test system: K. pneumoniae T2301 (bla NDM‑1 +); experiment: Imipenem MIC, broth microdilution, with fixed concentration of compound; assay type: cell-based; details: compound at 128 μg/mL; median of three experiments
Protocol: as §4

[20] = 6d at 128 μg/mL plus imipenem at 0.5 × MIC, 24 h

T3 sequence (P52699 19-246, looked up, species assumed): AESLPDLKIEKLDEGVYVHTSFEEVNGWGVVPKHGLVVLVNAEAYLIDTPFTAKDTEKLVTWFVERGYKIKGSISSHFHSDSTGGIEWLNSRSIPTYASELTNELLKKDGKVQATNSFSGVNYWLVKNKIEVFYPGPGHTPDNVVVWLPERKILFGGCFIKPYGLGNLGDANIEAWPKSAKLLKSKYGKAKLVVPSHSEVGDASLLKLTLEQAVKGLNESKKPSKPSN
T5 sequence (P12821 30-1306): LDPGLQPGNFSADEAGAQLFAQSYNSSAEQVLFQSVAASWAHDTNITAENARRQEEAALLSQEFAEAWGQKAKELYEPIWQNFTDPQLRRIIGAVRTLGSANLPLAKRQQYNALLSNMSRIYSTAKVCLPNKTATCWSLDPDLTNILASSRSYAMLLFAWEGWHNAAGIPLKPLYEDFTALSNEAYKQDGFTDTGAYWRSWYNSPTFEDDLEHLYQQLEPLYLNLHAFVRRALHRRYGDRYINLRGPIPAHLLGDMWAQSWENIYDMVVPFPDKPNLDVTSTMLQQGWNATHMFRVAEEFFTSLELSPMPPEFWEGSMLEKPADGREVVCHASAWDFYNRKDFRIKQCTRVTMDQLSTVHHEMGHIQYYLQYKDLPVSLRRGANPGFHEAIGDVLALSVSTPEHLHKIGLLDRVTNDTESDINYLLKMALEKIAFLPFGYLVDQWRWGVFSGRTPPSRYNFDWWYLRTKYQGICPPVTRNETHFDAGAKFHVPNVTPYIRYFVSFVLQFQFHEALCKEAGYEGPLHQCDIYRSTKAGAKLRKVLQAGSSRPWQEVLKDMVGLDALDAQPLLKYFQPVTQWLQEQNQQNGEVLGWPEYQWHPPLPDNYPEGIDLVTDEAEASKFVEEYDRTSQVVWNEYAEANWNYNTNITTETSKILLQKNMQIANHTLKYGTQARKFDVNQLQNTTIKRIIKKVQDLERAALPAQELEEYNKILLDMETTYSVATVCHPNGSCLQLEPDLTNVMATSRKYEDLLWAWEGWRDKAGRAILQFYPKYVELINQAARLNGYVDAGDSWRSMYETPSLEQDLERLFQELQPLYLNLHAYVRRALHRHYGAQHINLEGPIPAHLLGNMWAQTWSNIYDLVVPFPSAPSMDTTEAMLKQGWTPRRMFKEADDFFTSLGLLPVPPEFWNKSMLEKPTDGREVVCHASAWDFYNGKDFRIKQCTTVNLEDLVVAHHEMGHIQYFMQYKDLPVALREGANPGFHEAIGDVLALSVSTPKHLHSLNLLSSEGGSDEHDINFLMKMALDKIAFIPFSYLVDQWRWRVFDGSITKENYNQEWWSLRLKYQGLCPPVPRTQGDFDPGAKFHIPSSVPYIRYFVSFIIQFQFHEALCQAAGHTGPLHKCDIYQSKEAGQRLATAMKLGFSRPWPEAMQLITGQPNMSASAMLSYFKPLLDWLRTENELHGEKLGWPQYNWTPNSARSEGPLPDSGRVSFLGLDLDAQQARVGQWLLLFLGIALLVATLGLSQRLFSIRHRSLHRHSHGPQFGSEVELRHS
T1 sequence (C7C422 29-270 limits assumed): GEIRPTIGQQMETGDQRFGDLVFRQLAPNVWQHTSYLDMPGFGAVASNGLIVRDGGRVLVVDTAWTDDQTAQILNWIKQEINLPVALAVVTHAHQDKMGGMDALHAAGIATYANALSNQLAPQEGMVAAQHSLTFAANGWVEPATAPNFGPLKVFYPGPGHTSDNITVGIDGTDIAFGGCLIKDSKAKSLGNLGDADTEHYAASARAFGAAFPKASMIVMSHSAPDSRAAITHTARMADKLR
Sequence of IMP-7 (Q93AU3 entry or part of it): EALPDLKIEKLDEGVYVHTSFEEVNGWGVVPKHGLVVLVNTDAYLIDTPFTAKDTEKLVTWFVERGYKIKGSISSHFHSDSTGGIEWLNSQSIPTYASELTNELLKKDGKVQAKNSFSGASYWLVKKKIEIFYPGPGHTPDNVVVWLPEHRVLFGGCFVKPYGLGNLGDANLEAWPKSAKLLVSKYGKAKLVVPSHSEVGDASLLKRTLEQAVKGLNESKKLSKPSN

Compound | imipenem MIC, E. coli SI–N003 (bla NDM‑7 +) [1] [µg/mL] | imipenem MIC, E. coli SI-G001 (bla NDM‑4 +) [2] [µg/mL] | IC50 (NDM-1 [3]) [nM] | Ki (NDM-1 [4]) [nM] | inhibition at 50 µM (NDM-1 [4]) [%] | K, VIM-2 (VIM-2 [5]) [µM] | k –2, VIM-2 (VIM-2 [5]) | Kd (VIM-2 [5]) [nM] | potentiation of imipenem (change of imipenem MIC) on the panel, in words [6] | imipenem MIC, S. marcescens SI-1591 (bla VIM‑2 +) [7] [µg/mL] | imipenem MIC, A. baumannii AC-54/97 (bla IMP‑2 +) [8] [µg/mL] | imipenem MIC, K. pneumoniae 7023 (bla VIM‑1 +) [9] [µg/mL] | imipenem MIC, K. pneumoniae VA-416/02 (bla VIM‑4 +) [10] [µg/mL] | inhibition at 50 µM (VIM-2 [11]) [%] | inhibition at 50 µM (IMP-1) [%] | imipenem MIC, E. coli SI-M001 (bla NDM‑1 +) [12] [µg/mL] | inhibition at 50 µM [18] [%] | further results
C[C@H](CS)C(=O)N1c2ccccc2C2(CCCCC2)[C@@H]1C(N)=O [6f, (R)-1′-((S)-3-Mercapto-2-methylpropanoyl)spiro[cyclohexane-1,3′-indoline]-2′-carboxamide] | 64 | 64 | 4800 | 2100 ± 200 | 83 | >20 | 2.6 × 10^–3 s^–1 | 160 ± 10 | unable to reduce the imipenem MIC | 16 | 128 | 64 | 128 | 92 | 38 | 32 | – | –
CCC1(CC)c2ccccc2N(C(=O)[C@H](C)CS)[C@H]1C(N)=O [6d, (R)-3,3-Diethyl-1-((S)-3-mercapto-2-methylpropanoyl)indoline-2-carboxamide] | 64 | 32 | 3500 | 2600 ± 100 | 90 | >30 | 5.0 × 10^–3 s^–1 | 80 ± 10 | – | 8 | 128 | 16 | 64 | 98 | 51 | 32 | < 5 | IC50 (VIM-1): 400 nM; IC50 (IMP-7): 3300 nM; effect on the inhibitory potential of imipenem (growth curves) [13, 20]: further prolonged for several hours; intrinsic antibacterial activity (no activity up to) ([13]; inhibitor alone): > 128 µg/mL; effect on the inhibitory potential of imipenem (growth curves) [14, 20]: further prolonged for several hours; intrinsic antibacterial activity (no activity up to) ([14]; inhibitor alone): > 128 µg/mL; effect on the inhibitory potential of imipenem (growth curves) [15, 20]: further prolonged for several hours; intrinsic antibacterial activity (no activity up to) ([15]; inhibitor alone): > 128 µg/mL; fold reduction of the imipenem MIC, VIM-1-producing K. pneumoniae isolate ([9]; in combination with imipenem): 8 fold and 4 fold; imipenem MIC, K. pneumoniae T2216 (bla VIM‑1 +) [16]: 2 ^c μg/mL; imipenem MIC, P. aeruginosa T2325 (bla IMP‑1 +) ([17]; compound at 128 μg/mL, median of three experiments): 16 ^c μg/mL; fold reduction of the imipenem MIC, IMP-1-producing P. aeruginosa isolate ([17]; in combination with imipenem): 8 fold and 4 fold; inhibitory activity on ACE-1 (in words) ([18]; tested at 50 μM): negligible activity; also recorded: completely inactive; imipenem MIC, K. pneumoniae T2301 (bla NDM‑1 +) [19]: 16 ^c μg/mL
C[C@H](CS)C(=O)N1c2ccccc2C2(CCCCC2)[C@H]1C(N)=O [6e, (S)-1′-((S)-3-Mercapto-2-methylpropanoyl)spiro[cyclohexane-1,3′-indoline]-2′-carboxamide] | 64 | 64 | 7400 | 2000 ± 100 | 86 | – | – | – | unable to reduce the imipenem MIC | 16 | 128 | 64 | 64 | 97 | 68 | 32 | < 5 | Ki (VIM-2 [5]; competitive model, imipenem reporter substrate, read-out: K i VIM-2): 100 ± 10 nM; Ki (IMP-1; competitive model, imipenem reporter substrate, read-out: K i IMP-1): 3800 ± 300 nM

Source: paper PMC12406192, “Sustainable Joullié–Ugi and Continuous Flow Implementation Led to Novel Captopril-Inspired Broad-Spectrum Metallo-β-Lactamase Inhibitors” (Journal of Medicinal Chemistry, 2025)
